In this assay the test system is P388 leukemia ip, CD2F1 mice, survival T/C. As to the kind of experiment: NCI In Vivo Anticancer Drug Screen. Data for tumor model P388 Leukemia (intraperitoneal) in CD2F1 (CDF1) mice. The settings on record: endpoint: median survival time, higher = longer survival. The method, boiled down:
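Mice carrying the transplanted tumor received test compound or vehicle. Survival was recorded in each group, and the value is the treated-group measurement divided by that of the vehicle-treated control group.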

[1] abbreviates: dose: 100.0 mg/kg/injection, schedule: Q04DX002 (ip), vehicle: Klucel (hydroxypropylcellulose) (HPC).
Where [2] appears, read: dose: 200.0 mg/kg/injection, schedule: Q04DX002 (ip), vehicle: Klucel (hydroxypropylcellulose) (HPC).
Where [3] appears, read: dose: 12.5 mg/kg/injection, schedule: Q01DX009 (ip), vehicle: saline.
Where [4] appears, read: dose: 25.0 mg/kg/injection, schedule: Q01DX009 (ip), vehicle: saline.
[5] abbreviates: dose: 100.0 mg/kg/injection, schedule: Q01DX009 (ip), vehicle: saline with Tween-80.
The mark [6] stands for this setting: dose: 50.0 mg/kg/injection, schedule: Q01DX005 (ip), vehicle: saline.
[7] abbreviates: dose: 100.0 mg/kg/injection, schedule: Q01DX005 (ip), vehicle: saline.
Where [8] appears, read: dose: 200.0 mg/kg/injection, schedule: Q01DX005 (ip), vehicle: saline.

Among the data in PubChem BioAssay AID330 (DTP/NCI, 2004) are T/C values, retold here.

“And” between values parts separate entries of the source, which are not always exact repeats. Equal values may be shown once. Toxic doses and inconclusive results are not listed.

On to `CC[C@](O)(C(=O)O)c1cc2n(c(=O)c1CO)Cc1cc3ccccc3nc1-2`, for which the T/C was 118 % of control (dose: 0.5 mg/kg/injection, schedule: Q01DX009 (ip), vehicle: saline with Tween-80); 120 % of control (dose: 0.5 mg/kg/injection, schedule: Q01DX009 (ip), vehicle: water); 116 % of control and 119 % of control (dose: 1.57 mg/kg/injection, schedule: Q04DX003 (ip), vehicle: other); 163 % of control (dose: 2.0 mg/kg/injection, schedule: Q01DX009 (ip), vehicle: saline sonified); 159 % of control (dose: 2.0 mg/kg/injection, schedule: Q01DX009 (ip), vehicle: saline with Tween-80); 158 % of control (dose: 2.0 mg/kg/injection, schedule: Q01DX009 (ip), vehicle: water). Also, the T/C is 120 % of control (dose: 2.5 mg/kg/injection, schedule: Q04DX003 (ip), vehicle: water); 100 % of control (dose: 4.0 mg/kg/injection, schedule: Q01DX009 (ip), vehicle: saline sonified); 195 % of control (dose: 4.0 mg/kg/injection, schedule: Q01DX009 (ip), vehicle: saline with Tween-80); 207 % of control (dose: 4.0 mg/kg/injection, schedule: Q01DX009 (ip), vehicle: water); 111 % of control (dose: 5.0 mg/kg/injection, schedule: Q04DX003 (ip), vehicle: water); 156 % of control and 159 % of control (dose: 6.25 mg/kg/injection, schedule: Q04DX003 (ip), vehicle: other). In addition, the T/C was 154 % of control (dose: 6.25 mg/kg/injection, schedule: Q04DX003 (ip), vehicle: water); 100 % of control (dose: 8.0 mg/kg/injection, schedule: Q01DX009 (ip), vehicle: water); 108 % of control (dose: 9.72 mg/kg/injection, schedule: Q04DX002 (ip), vehicle: saline); 155 % of control (dose: 10.0 mg/kg/injection, schedule: Q04DX003 (ip), vehicle: water); 160 % of control (dose: 10.8 mg/kg/injection, schedule: Q04DX002 (ip), vehicle: saline); 106 % of control and 113 % of control (dose: 12.5 mg/kg/injection, schedule: Q04DX003 (ip), vehicle: other). The T/C is, setting by setting: (dose: 13.0 mg/kg/injection, schedule: Q04DX003 (ip), vehicle: saline) 185 % of control; (dose: 18.0 mg/kg/injection, schedule: Q04DX002 (ip), vehicle: saline) 159 % of control; (dose: 20.0 mg/kg/injection, schedule: Q04DX003 (ip), vehicle: water) 178 % of control and 220 % of control; (dose: 21.6 mg/kg/injection, schedule: Q04DX003 (ip), vehicle: saline) 217 % of control; (dose: 25.0 mg/kg/injection, schedule: Q04DX003 (ip), vehicle: other) 98 % of control and 90 % of control; (dose: 25.0 mg/kg/injection, schedule: Q04DX003 (ip), vehicle: water) 154 % of control. Besides, the T/C by setting is: (dose: 30.0 mg/kg/injection, schedule: Q04DX002 (ip), vehicle: saline) 177 % of control; (dose: 36.0 mg/kg/injection, schedule: Q04DX003 (ip), vehicle: saline) 233 % of control; (dose: 40.0 mg/kg/injection, schedule: Q04DX003 (ip), vehicle: water) 212 % of control and 94 % of control; (dose: 45.0 mg/kg/injection, schedule: Q04DX002 (ip), vehicle: saline) 157 % of control and 196 % of control; (dose: 50.0 mg/kg/injection, schedule: Q04DX002 (ip), vehicle: saline) 183 % of control; (dose: 60.0 mg/kg/injection, schedule: Q04DX003 (ip), vehicle: saline) 93 % of control. Further, the T/C is, setting by setting: (dose: 83.3 mg/kg/injection, schedule: Q04DX002 (ip), vehicle: saline) 91 % of control; (dose: 128.0 mg/kg/injection, schedule: Q04DX003 (ip), vehicle: saline) 58 % of control.

Take `O=C1C=C/C(=C\c2ccc(Cl)cc2)O1`: the T/C reads like this: under setting [1], 99 % of control; under setting [2], 107 % of control; (dose: 400.0 mg/kg/injection, schedule: Q04DX002 (ip), vehicle: Klucel (hydroxypropylcellulose) (HPC)) 96 % of control.

Turning to `CCOC(=O)C(C)c1ccccc1-c1cccc(OC)c1` (centres undefined), the T/C is 94 % of control (dose: 50.0 mg/kg/injection, schedule: Q01DX005 (ip), vehicle: saline with Tween-80); 97 % of control (dose: 100.0 mg/kg/injection, schedule: Q01DX005 (ip), vehicle: saline with Tween-80); 103 % of control (dose: 200.0 mg/kg/injection, schedule: Q01DX005 (ip), vehicle: saline with Tween-80).

As to `O=C(Nc1cccc([N+](=O)[O-])c1)OCC#CCCl`, the T/C reads like this: (dose: 50.0 mg/kg/injection, schedule: Q01DX005 (ip), vehicle: saline + Tween-80 + alcohol) 102 % of control; (dose: 100.0 mg/kg/injection, schedule: Q01DX005 (ip), vehicle: saline + Tween-80 + alcohol) 101 % of control; (dose: 200.0 mg/kg/injection, schedule: Q01DX005 (ip), vehicle: saline + Tween-80 + alcohol) 100 % of control.

`C=C1C(=O)OC2/C=C(\C)CC/C=C(/C)CC(OC(=O)/C(=C/CO)CO)C12` (centres undefined): the T/C reads like this: (dose: 5.0 mg/kg/injection, schedule: Q01DX009 (ip), vehicle: Klucel (hydroxypropylcellulose) (HPC)) 108 % of control and 113 % of control; (dose: 10.0 mg/kg/injection, schedule: Q01DX009 (ip), vehicle: Klucel (hydroxypropylcellulose) (HPC)) 106 % of control and 115 % of control (2×); (dose: 20.0 mg/kg/injection, schedule: Q01DX009 (ip), vehicle: Klucel (hydroxypropylcellulose) (HPC)) 106 % of control and 117 % of control; (dose: 40.0 mg/kg/injection, schedule: Q01DX009 (ip), vehicle: Klucel (hydroxypropylcellulose) (HPC)) 113 % of control and 117 % of control and 89 % of control.

For the molecule `N#CCN=NNc1ccc([N+](=O)[O-])cc1`, the T/C is 115 % of control (dose: 100.0 mg/kg/injection, schedule: Q01DX001 (ip), vehicle: Klucel (hydroxypropylcellulose) (HPC)); 107 % of control (dose: 200.0 mg/kg/injection, schedule: Q01DX001 (ip), vehicle: Klucel (hydroxypropylcellulose) (HPC)); 116 % of control (dose: 400.0 mg/kg/injection, schedule: Q01DX001 (ip), vehicle: Klucel (hydroxypropylcellulose) (HPC)).

For `COc1ccc(Br)cc1-c1cc2cccc[n+]2o1`, the T/C reads like this: under setting [3], 101 % of control; under setting [4], 109 % of control.

Turning to `Cc1ccc2c(c1)nc(-c1ccccn1)n2CCc1ccccn1`, the T/C reads like this: (dose: 50.0 mg/kg/injection, schedule: Q04DX002 (ip), vehicle: Klucel (hydroxypropylcellulose) (HPC)) 100 % of control; under setting [1], 102 % of control; under setting [2], 105 % of control.

As to `c1cc2c3c(cccc3c1)NN=N2`, the T/C reads like this: (dose: 60.0 mg/kg/injection, schedule: Q01DX005 (ip), vehicle: Klucel + Tween-80) 106 % of control; (dose: 120.0 mg/kg/injection, schedule: Q01DX005 (ip), vehicle: Klucel + Tween-80) 99 % of control; (dose: 240.0 mg/kg/injection, schedule: Q01DX005 (ip), vehicle: Klucel + Tween-80) 96 % of control.

Take `Cc1cc(Cl)ccc1NC(=O)Oc1nc2ccccc2o1`: the T/C was 104 % of control and 96 % of control (dose: 12.5 mg/kg/injection, schedule: Q01DX009 (ip), vehicle: saline with Tween-80); 99 % of control and 101 % of control (dose: 25.0 mg/kg/injection, schedule: Q01DX009 (ip), vehicle: saline with Tween-80); 111 % of control and 96 % of control (dose: 50.0 mg/kg/injection, schedule: Q01DX009 (ip), vehicle: saline with Tween-80); 101 % of control and 112 % of control under setting [5].

Turning to `CN(C)C(=O)C(=O)C1C=Cc2ccccc21` (centres undefined), the T/C runs as follows: under setting [5], 100 % of control; (dose: 200.0 mg/kg/injection, schedule: Q01DX009 (ip), vehicle: saline with Tween-80) 90 % of control; (dose: 400.0 mg/kg/injection, schedule: Q01DX009 (ip), vehicle: saline with Tween-80) 95 % of control.

Turning to `CC(C)[C@@]12O[C@@H]1CC13OC1[C@@H](O)CC[C@@]32O` (some centres undefined), the T/C under setting [6] is 105 % of control, the T/C under setting [7] was 99 % of control and the T/C under setting [8] was 103 % of control.

Consider `N#Cc1cccnc1.NCCNCCN.[Br-].[Pt+4]`, for which the T/C reads like this: under setting [3], 100 % of control; under setting [4], 96 % of control; (dose: 50.0 mg/kg/injection, schedule: Q01DX009 (ip), vehicle: saline) 105 % of control; (dose: 100.0 mg/kg/injection, schedule: Q01DX009 (ip), vehicle: saline) 103 % of control; (dose: 200.0 mg/kg/injection, schedule: Q01DX009 (ip), vehicle: saline) 102 % of control.

As to `CN(C)CCCNC(=O)c1nn(-c2ccccc2)c2c1N(C)S(=O)(=O)c1ccccc1-2`, the T/C by setting is: under setting [6], 92 % of control; under setting [7], 99 % of control; under setting [8], 101 % of control.
